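Assay format: 96-well plates, 48-hour exposure. The concentration for 50% growth inhibition is given as GI50. TGI: total growth inhibition.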
Experiments:
Experiment in all cases: growth of human tumour cells (NCI), 48 h
A498 renal = test system: A498 renal
HOP-92 NSCLC = test system: HOP-92 NSCLC
K-562 leukemia = test system: K-562 leukemia
MOLT-4 leukemia = test system: MOLT-4 leukemia
OVCAR-8 ovarian = test system: OVCAR-8 ovarian
SK-MEL-28 melanoma = test system: SK-MEL-28 melanoma
SK-MEL-5 melanoma = test system: SK-MEL-5 melanoma
SNB-75 CNS = test system: SNB-75 CNS
T-47D breast = test system: T-47D breast
TK-10 renal = test system: TK-10 renal

SMILES	TGI (A498 renal) [µM]	TGI (HOP-92 NSCLC) [µM]	TGI (K-562 leukemia) [µM]	TGI (MOLT-4 leukemia) [µM]	TGI (OVCAR-8 ovarian) [µM]	TGI (SK-MEL-28 melanoma) [µM]	TGI (SK-MEL-5 melanoma) [µM]	TGI (SNB-75 CNS) [µM]	TGI (T-47D breast) [µM]	TGI (TK-10 renal) [µM]	GI50 (A498 renal) [µM]	GI50 (K-562 leukemia) [µM]	GI50 (OVCAR-8 ovarian) [µM]	GI50 (SK-MEL-28 melanoma) [µM]	GI50 (SK-MEL-5 melanoma) [µM]	GI50 (TK-10 renal) [µM]	GI50 (MOLT-4 leukemia) [µM]	GI50 (T-47D breast) [µM]	GI50 (SNB-75 CNS) [µM]	GI50 (HOP-92 NSCLC) [µM]
CC(C)(C)COS(=O)OCC(C)(C)C	> 100	> 100	> 100	> 100	> 100	> 100	> 100	> 100	> 100	> 100										
COc1cc2cc[n+](C)c(Cc3ccc(Oc4cc(Cc5c6cc(OC)c(OC)cc6cc[n+]5C)ccc4OC)cc3)c2cc1OC	> 100	> 100	> 100	> 100	> 100	> 100	> 100	> 100	> 100	> 100										
CC(C)C(=O)CC(c1ccc(Br)cc1)N1N=C(C(C)C)CC1c1ccc(Br)cc1 (centres undefined)		> 100	> 100	> 100	> 100	> 100				> 100										
CC(CCCCNC(=O)OC(C)(C)C)NC(=O)NC(C)CCCCNC(=O)OC(C)(C)C (centres undefined)	> 100	> 100	> 100	> 100	> 100	> 100	> 100	> 100	> 100	> 100										
C[C@]12O[C@@]3(C)O[C@@]3(C)[C@]3(C)O[C@]3(C)[C@@]1(C)O2	> 100	> 100	> 100	> 100	> 100	> 100	> 100	74.6	> 100	> 100										
Cc1c2ccccc2cc2cccc[n+]12			> 100	> 100	> 100	70.5	92.3	83.7		> 100										
Cc1ccc(S(=O)(=O)Nc2cc(=O)[nH]c3c2CCC3)cc1	> 100	> 100	> 100	> 100	> 100	> 100	> 100	> 100	> 100	> 100										
C/C=C/C(O)P(=O)(OC)OC (centres undefined)	0.955	0.27	2.63	11.2	1.78	1.36	0.483	1.49	1.55	1.45										
c1ccc(C[N+]23C(CC[C@H]2c2ccccc2)CC[C@H]3c2ccccc2)cc1 (some centres undefined)	> 100	52.3	> 100	> 100	> 100	> 100	19.1	75	> 100	> 100										
Clc1cccc(/C=c2\nc(-c3ccccc3)n3c2nc2ccccc23)c1	> 100	48.4	> 100	> 100	> 100	> 100	> 100	81.2		> 100										
Nc1csc(-c2scc3c2OCCO3)c1N	36.6	71.8	87.4	> 100	40.1	49.5	35.4			87.3										
CCCC(=O)Nc1cc(/C=C/C(=O)N2CC(CCl)c3c2cc(OC(C)=O)c2[nH]cc(C)c32)n(C)c1 (centres undefined)	0.000667	0.000146	> 0.197	0.00436	0.000858		5.84e-05	< 2.5e-05	0.0689											
C=CCc1cccc(/C(O)=C/C(=O)/C=C/c2ccccc2Cl)c1O	45	55.2	> 25.2	15.6	25.5	> 57.5	31.7	> 100	> 100	> 100										
CN(CCCN1CCCC1)CCCN(C)C(=O)Cc1ccc(Cl)c(Cl)c1	28.1	35.9	18.3	32.4	> 100	5.26	36.3	42.6	45.9	32.1										
CC1(C)CC(C(=O)OCCCCCCCCCCC[P+](c2ccccc2)(c2ccccc2)c2ccccc2)C(C)(C)N1O (centres undefined)	1.26		0.784		1.72	1.97	0.299			1.67	0.353	0.0852	0.319	0.653	0.15	0.362				
NC(N)=N/N=C/c1c(-c2cccs2)nc2n1CCS2	> 100		71.8	28.5	> 100		29.1		37.3	46.5	5.65	27.9	46.5		15.6	18.3	13.9	17.5		
CCOC(=O)c1cccc(N=Nc2ncc(/C=C/C(=O)OC)[nH]2)c1	67.8	> 100	> 100	28.9	63.6	> 100	30.1	92.4	89.7	> 100										
CCOC(=O)/C=C/C1=C(Br)[C@@]2(C)CC[C@@H]3c4ccc(O)cc4CC[C@H]3[C@@H]2C1	32	23.8	24.9	43.2		30	26.8		16.5	31.7										
CC12OC(C(=O)C13CCC3)C1C(=O)c3c(O)ccc(O)c3C(=O)C12 (centres undefined)	29.8		10.3		18.1	6.35	26.1	20.1	3.2	1.57	14.5	1.27	7.04	2.49	11	0.587	0.123	0.948	4.99	
COc1cc(/C=C2\CC3C4CC[C@H]5C[C@@H](O)CC[C@]5(C)C4CC[C@]3(C)\C2=N\O)cc(OC)c1OC (some centres undefined)	31.1	> 100	> 100	37.5	> 100	66.9	30.7	> 100	36.9	> 100										
CCCCSCCC(N)P(=O)(O)O (centres undefined)		> 100	> 100	> 100	> 100	> 100	> 100	> 100	> 100	> 100										

SMILES	TGI (A498 renal) [µM]	TGI (HOP-92 NSCLC) [µM]	TGI (K-562 leukemia) [µM]	TGI (MOLT-4 leukemia) [µM]	TGI (OVCAR-8 ovarian) [µM]	TGI (SK-MEL-28 melanoma) [µM]	TGI (SK-MEL-5 melanoma) [µM]	TGI (SNB-75 CNS) [µM]	TGI (T-47D breast) [µM]	TGI (TK-10 renal) [µM]	GI50 (A498 renal) [µM]	GI50 (K-562 leukemia) [µM]	GI50 (OVCAR-8 ovarian) [µM]	GI50 (SK-MEL-28 melanoma) [µM]	GI50 (SK-MEL-5 melanoma) [µM]	GI50 (TK-10 renal) [µM]	GI50 (MOLT-4 leukemia) [µM]	GI50 (T-47D breast) [µM]	GI50 (SNB-75 CNS) [µM]	GI50 (HOP-92 NSCLC) [µM]
OC1CCSc2ccccc21 (centres undefined)			> 100	> 100	> 100	> 100	> 100													
CS(=O)(=O)Nc1ccc(NCc2cnc3ccc4[nH]cccc4c23)cc1	51.8	> 100	53.7	33.6	> 100	66.4	28.8	61.3	66.6	94.8										
COc1ccc(-n2nc(C(=O)c3ccccc3)c3nn4c(=O)cc(-c5ccccc5)nc4nc32)cc1	> 100	> 100	> 100	> 100	> 100	> 100	> 100	> 100	> 100	> 100	66.2	40.5	40.1	38.3	41.7	40.3	34.8	32.4	37.9	37.4
Cc1cc(=O)[nH]c(S(=O)(=O)NC(=O)Nc2cccc(Cl)c2)n1	> 100	> 100	> 100	> 100	> 100	> 100	> 100	> 100	> 100	> 100										
CN(C)c1ccc(/C=C2\C[C@H]3[C@@H]4CC=C5C[C@@H](O)CC[C@]5(C)[C@H]4CC[C@]3(C)[C@H]2O)cc1	31.5		> 100	> 100	13.1	44.9	34.3	> 100	76.6	33.7										
CC(NC(=O)c1ccc(OP(=O)(OCc2ccc([N+](=O)[O-])o2)N(C)CCCCCl)cc1)c1ccc(OCC2CCCCC2)c(C(N)=O)c1 (centres undefined)	63.2	4.75	18	6.89	> 74.4	7	6.14	25.3	> 20.1	60.9										
O=S(C(c1ccccc1)=P(c1ccccc1)(c1ccccc1)c1ccccc1)c1ccc(Cl)cc1 (centres undefined)	37.1	42.2	> 100	> 100	> 100	> 100	27	> 100	> 100	> 100										
CN(CCCNC(=O)c1nn(-c2ccccc2)c2c1Cc1ccccc1-2)CCCNC(=O)c1nn(-c2ccccc2)c2c1Cc1ccccc1-2	3.15	3.26	2.17	2.95	3.39	2.77	3.02		3.6	3.22										
Oc1ccc(Cl)cc1C1=Nn2c(COc3ccc4c(c3)CCCC4)nnc2SC1	11.8	18.1	49.4	43.8	30.9	14.4	19		34.3	20.1										
C=C(CN(C)C)C(=O)c1ccccc1Cl	> 96	31.1	> 75.4	> 75.2	45.2	19.4	57.8	> 80.7		39.2										
C#C[C@]1(O)[C@@H](CO)O[C@@H](n2ccc(=O)[nH]c2=O)[C@@H]1O	> 100		> 100		> 100	31.3	13		1.9	> 100										
CCC1=C(CC2NCCc3cc(OC)c(OC)cc32)CC2c3ccccc3CCN2C1 (centres undefined)	28.5	42.6	22	43.9	> 100	29	28	87.9	54.5	> 100										
Cc1ccc([N+](=O)[O-])cc1S(=O)(=O)Nc1ccc(C2=NN(C(=O)c3ccccc3)C(c3ccccc3O)C2)cc1 (centres undefined)	60.6	26.4	> 100	51.5	57.7	> 100	34.7	41.4	30.1	28.5										
O=C1CNc2cc(N3CCCCC3)ccc2N1		> 100	> 100	> 100	> 100	> 100	> 100	> 100	> 100	> 100										
CN(CCc1ccccn1)c1ccc2c(c1)Cc1ccccc1-2	50.6	31.9	> 100	> 100	77.8	> 100	31.3	45.2	92.5	> 100										
O=C(/C=C/c1ccc(O)c(O)c1)O[C@H]1CCCC[C@@H]1OC(=O)/C=C/c1ccc(O)c(O)c1	43.2	52.1	> 100	> 100	57.1	44.1	21.4	> 100	98.8	57.7										
O=C(NN1CCCCC1)c1cc2cc(CCl)ccc2oc1=O	> 100	22.9	48.1	65.5	54.8	> 100	33.7	34.9	48.7	35.5										
COc1ccc2c3c([nH]c2c1)[C@H](C=C(C)C)N1C(=O)[C@@H]2CCCN2C(=O)[C@@H]1C3	> 100	> 100	> 100	> 100	> 100	55.5		61	> 100	> 100										
CS(=O)(=O)Nc1cccc(-c2ccc3ncnc(Nc4cncc(Cl)c4)c3c2)c1		26.8	> 100	7.61	> 100		3.74	> 100	6.36	5.44		2.59	3.22		1.75	0.748	2.38	0.726	2.77	1.83
COc1ccc(-n2nnc3c(C#N)c(C)c(-c4ccccc4)n3c2=O)cc1	> 100	> 100		> 58.1	> 70.8	> 100	17	> 29.2	> 100	> 100										
